Drawing on article PMC6540285, “Evaluation of Protein Kinase Inhibitors with PLK4 Cross-Over Potential in a Pre-Clinical Model of Cancer” (International Journal of Molecular Sciences, 2019), this text covers inhibition for one molecule.

The term inhibition denotes the percentage by which the read-out fell short of the control. Read a high inhibition as a strong effect.

Assay [1] addresses AXL R499C (Homo sapiens, UniProt P30530, R499C). Description: SelectScreen kinase profiling, LanthaScreen binding. On the technique in general: TR-FRET usually uses a lanthanide donor and a delayed reading to cut background.
The target of assay [2] is PKN2 (PRK2) (Homo sapiens, UniProt Q16513). The assay is described as above.
Chain of PKN2 (PRK2) (Q16513 whole entry): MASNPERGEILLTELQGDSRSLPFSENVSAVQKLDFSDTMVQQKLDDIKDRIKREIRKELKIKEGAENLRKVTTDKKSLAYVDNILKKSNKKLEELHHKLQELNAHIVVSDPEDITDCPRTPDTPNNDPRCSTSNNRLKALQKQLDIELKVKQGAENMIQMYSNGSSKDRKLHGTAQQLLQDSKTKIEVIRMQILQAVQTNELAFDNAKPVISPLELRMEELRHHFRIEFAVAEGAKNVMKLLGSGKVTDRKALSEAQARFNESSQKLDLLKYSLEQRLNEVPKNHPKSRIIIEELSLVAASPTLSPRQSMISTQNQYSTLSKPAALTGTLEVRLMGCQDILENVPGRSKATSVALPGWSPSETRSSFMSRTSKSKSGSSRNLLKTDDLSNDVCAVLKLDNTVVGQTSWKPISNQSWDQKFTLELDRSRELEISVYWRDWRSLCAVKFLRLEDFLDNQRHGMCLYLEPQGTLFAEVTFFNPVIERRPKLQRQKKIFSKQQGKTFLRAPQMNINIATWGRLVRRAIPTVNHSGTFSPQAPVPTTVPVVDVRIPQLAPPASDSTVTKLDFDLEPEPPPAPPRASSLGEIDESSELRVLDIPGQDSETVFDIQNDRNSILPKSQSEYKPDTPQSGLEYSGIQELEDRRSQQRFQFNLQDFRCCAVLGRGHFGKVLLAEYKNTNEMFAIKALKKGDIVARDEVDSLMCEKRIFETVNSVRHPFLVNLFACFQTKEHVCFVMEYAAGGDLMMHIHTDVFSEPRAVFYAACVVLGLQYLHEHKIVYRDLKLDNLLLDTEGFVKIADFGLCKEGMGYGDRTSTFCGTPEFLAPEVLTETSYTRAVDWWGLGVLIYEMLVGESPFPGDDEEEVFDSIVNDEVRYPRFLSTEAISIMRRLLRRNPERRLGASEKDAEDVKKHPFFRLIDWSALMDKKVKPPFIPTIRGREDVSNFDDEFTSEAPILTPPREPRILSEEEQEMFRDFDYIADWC

Chain of AXL R499C (P30530 26-894 R499C): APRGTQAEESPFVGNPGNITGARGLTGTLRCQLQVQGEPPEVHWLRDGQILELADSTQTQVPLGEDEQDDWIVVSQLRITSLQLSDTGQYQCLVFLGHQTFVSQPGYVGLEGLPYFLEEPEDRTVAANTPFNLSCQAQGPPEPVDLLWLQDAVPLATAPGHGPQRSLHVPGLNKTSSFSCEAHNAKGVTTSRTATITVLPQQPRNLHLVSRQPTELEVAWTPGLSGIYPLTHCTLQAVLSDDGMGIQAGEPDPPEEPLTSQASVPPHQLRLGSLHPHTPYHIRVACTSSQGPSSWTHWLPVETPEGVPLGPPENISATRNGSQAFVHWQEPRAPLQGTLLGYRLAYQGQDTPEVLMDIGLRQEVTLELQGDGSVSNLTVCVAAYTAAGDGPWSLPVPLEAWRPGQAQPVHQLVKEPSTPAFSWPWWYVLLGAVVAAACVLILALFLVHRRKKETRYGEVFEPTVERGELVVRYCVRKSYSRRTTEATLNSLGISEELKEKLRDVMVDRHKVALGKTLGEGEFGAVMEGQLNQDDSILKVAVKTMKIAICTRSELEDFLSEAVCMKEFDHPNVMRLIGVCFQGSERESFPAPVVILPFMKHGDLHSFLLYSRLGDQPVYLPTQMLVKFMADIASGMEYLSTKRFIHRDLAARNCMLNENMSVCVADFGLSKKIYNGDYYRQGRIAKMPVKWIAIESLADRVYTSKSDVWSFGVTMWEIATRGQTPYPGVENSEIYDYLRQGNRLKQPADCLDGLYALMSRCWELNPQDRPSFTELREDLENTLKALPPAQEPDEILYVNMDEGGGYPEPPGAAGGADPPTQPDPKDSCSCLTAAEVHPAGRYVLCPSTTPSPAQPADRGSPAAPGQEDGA

Regarding `O=C(c1ccc(/C=C/c2n[nH]c3ccccc23)cc1)N1CCNCC1` [KW-2449], the inhibition at 10 µM in assay [1] is 45%; in assay [2], 65%.
